Source: article PMC11397566, “Cytotoxic Natural Products from the Jurassic Relict Osmunda regalis L” (Molecules, 2024)

Assays:
Assay type in all cases: cell-based
MOLM13 cells = experiment: Cytotoxicity (WST-1 metabolic activity) towards AML cell line MOLM13; conditions: for cytotoxic activity against the MOLM13 cells (in words): compared with a DMSO control, 72 hours of incubation; for EC50: Homo sapiens, MOLM-13, metabolic activity (WST-1) after 72 h of incubation, compounds diluted in DMSO, three independent experiments
Protocol: (§1) The pure compounds were diluted to create stock solutions with a final concentration of 20 mM in DMSO (Dimethyl Sulfoxide—for molecular biology, Sigma-Aldrich, Saint Louise, MO, USA). Normal rat kidney epithelial cells (NRK, ATCC no.: CRL-6509) and rat cardiomyoblasts (H9c2, ATCC no.: CRL-1446) were grown in DMEM medium enriched with 10% foetal bovine serum (FBS, Invitrogen, Carlsbad, CA, USA). Once the cells achieved 80% confluence, they were gently detached using trypsin treatment (0.33 mg/mL trypsin for 5 min at 37 °C), centrifuged (160× g, 4 min), and then reseeded in fresh medium to reach 25% confluence.
The AML cell line MOLM13 (DSMZ no.: ACC554, [39]) was maintained in RPMI-1640 medium supplemented with 10% FBS and 8 mM L-glutamine (Sigma Life Science, Dorset, UK). The cells were kept in suspension cultures with a density of 150,000 to 700,000 cells/mL.
(§2) All media were further supplemented with 1 IU/mL penicillin and 1 mg/mL streptomycin (both from Cambrex, Liège, Belgium) and incubated in a humidified environment (37 °C, 5% CO2). For the cytotoxicity experiments with compounds 11 to 15, the NRK and H9c2 cells were seeded in 96-well tissue culture plates (4000 cells/well, 0.1 mL) and left overnight to attach before treatments. The MOLM13 cells were seeded in 96-well tissue culture plates at 20,000 cells/well in 0.1 mL on the day of the experiment.
(§3) Compounds dissolved in DMSO were added to the cells, and the plates were incubated for 72 hours before adding the tetrazolium salt WST-1 according to the manufacturer’s instructions (Roche Diagnostics GmbH, Mannheim, Germany). The plates were further incubated for two hours before the signal was recorded at 450 nm with reference at 620 nm. For black subtraction, medium and plant compounds were added to WST-1. This procedure was performed after 24 and 72 h.
(§4) After recording WST-1, the cells were next fixed with 2% buffered formaldehyde (pH 7.4) with 0.01 mg/mL of the DNA-specific fluorescent dye, […]. As previously described, the presence of dead (apoptotic or necrotic) cells was verified by differential interference contrast and fluorescence microscopy.
(§5) EC50 values were determined by a four-parameter regression analysis as described by Viktorsson et al., using SigmaPlot ver. 14.0 (Systat Software Inc., San Jose, CA, USA).

H9c2 cells = experiment: Cytotoxicity (WST-1 metabolic activity) towards rat cardiomyoblasts H9c2; conditions: metabolic activity (WST-1) after 72 h of incubation, compounds diluted in DMSO, three independent experiments
Protocol: as §1, with “confluence. […]” for “confluence.”
as §3, with “For black subtraction, medium and plant compounds were added to WST-1. This procedure was performed after 24 and 72 h.” left out
as §4
EC50 values were determined by a four-parameter regression analysis as described by Viktorsson et al., using SigmaPlot ver. […]

NRK cells = experiment: Cytotoxicity (WST-1 metabolic activity) towards normal rat kidney epithelial cells NRK; conditions: for EC50: Rattus norvegicus, NRK, metabolic activity (WST-1) after 72 h of incubation, compounds diluted in DMSO, three experiments, "-" = no data available due to low or no toxicity
Protocol: as §1, §2, §3, §4, §5

| Structure (SMILES) | cytotoxic activity against the MOLM13 cells (in words) (MOLM13 cells) | also measured |
| --- | --- | --- |
| CC1OC(OC2C(OC3C(Oc4c(-c5ccc(O)cc5)oc5cc(O)cc(O)c5c4=O)OC(CO)C(O)C3O)OC(CO)C(O)C2O)C(O)C(O)C1O (stereo not drawn) [Compound 2, kaempferol 3-O-(2’’-O-(2’’’-α-rhamnopyranosyl)-β-glucopyranosyl)-β-glucopyranoside] | Only compounds 11 and 15, which are γ- and δ-lactones, respectively, exhibited significant cytotoxic activity | – |
| CC1OC(OC2C(OC3C(Oc4c(-c5ccc(O)c(O)c5)oc5cc(O)cc(O)c5c4=O)OC(CO)C(O)C3O)OC(CO)C(O)C2O)C(O)C(O)C1O (stereo not drawn) [Compound 3, quercetin 3-O-(2’’-O-(2’’’-α-rhamnopyranosyl)-β-glucopyranosyl)-β-glucopyranoside] | Only compounds 11 and 15, which are γ- and δ-lactones, respectively, exhibited significant cytotoxic activity | – |
| CC1OC(OC2C(OC3C(Oc4c(-c5ccc(O)cc5)oc5cc(O)cc(O)c5c4=O)OC(CO)C(O)C3O)OC(COC(=O)C=Cc3ccc(O)c(O)c3)C(O)C2O)C(O)C(O)C1O (stereo not drawn) [Compound 6, kaempferol 3-O-(2’’-O-(2’’’-O-α-rhamnopyranosyl-6’’’-O-(E)-caffeoyl-)-β-glucopyranosyl)-β-glucopyranoside] | Only compounds 11 and 15, which are γ- and δ-lactones, respectively, exhibited significant cytotoxic activity | – |
| COc1cc(C2Oc3c(OC)cc(CCCO)cc3[C@H]2CO)ccc1O[C@@H]1O[C@@H](C)[C@H](O)[C@@H](O)[C@H]1O (stereo partly drawn) [Compound 8, (7R,8S)-dihydrodehydrodiconiferyl alcohol 4-O-α-rhamnopyranoside] | Only compounds 11 and 15, which are γ- and δ-lactones, respectively, exhibited significant cytotoxic activity | – |
| COc1cc(C2OC2CO)ccc1O (centres unmarked) [Compound 10, epoxyconiferyl alcohol] | Only compounds 11 and 15, which are γ- and δ-lactones, respectively, exhibited significant cytotoxic activity | – |
| CC(O)C1C=CC(=O)O1 (centres unmarked) [Compound 11, 5-hydroxy-2-hexen-4-olide] | significant cytotoxic activity | EC50 (MOLM13 cells): 46.2 ± 0.07 µM; EC50 (H9c2 cells): 48.7 ± 0.18 µM; EC50 (NRK cells): 49.6 ± 0.11 µM |
| CO[C@H]1CC(=O)O[C@@H]1C(C)O (some centres unmarked) [Compound 12, 3-methoxy-5-hydroxy-4-olide] | Only compounds 11 and 15, which are γ- and δ-lactones, respectively, exhibited significant cytotoxic activity | – |
| CC(O)C1OC(=O)C(C2CC(=O)OC(C)C2O)C1O [Compound 13, (4R,5S,3’S,1’’S,4’R)-4-hydroxy-3-(3’-hydroxy-4’-(1-hydroxyethyl)-oxotetrahydrofuran-5-methyltetrahydropyranone] | Only compounds 11 and 15, which are γ- and δ-lactones, respectively, exhibited significant cytotoxic activity | – |
| CC1=CC(=O)CC(C)(C)C1CCC(C)O[C@@H]1O[C@H](CO)[C@@H](O)[C@H](O)[C@H]1O (stereo partly drawn) [Compound 14, blumenol C 9-O-β-glucopyranoside] | Only compounds 11 and 15, which are γ- and δ-lactones, respectively, exhibited significant cytotoxic activity | – |
| CC(O)C(=O)CCC(=O)OC1C=CC(=O)OC1C (centres unmarked) [Compound 15, 4-O-(5-hydroxy-4-oxohexanoyl) osmundalactone] | significant cytotoxic activity | EC50 (MOLM13 cells): 111.9 ± 0.07 µM; EC50 (H9c2 cells): 102.7 ± 0.12 µM; reduced metabolic activity in the NRK cells at the highest concentration tested (NRK cells; 200 μM, 72 h): did not detect reduced metabolic activity; EC50 (NRK cells): > 200 µM |
